#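 Test compounds were applied to cells in 96-well plates for 48 hours at 5 doses. GI50 marks 50% less growth. TGI is the concentration that stops growth completely.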
# How the values were obtained:
# Assay in all cases: inhibition of tumour cell growth, NCI panel, 48 h
# [1] = tested on: 786-0 renal
# [2] = tested on: A498 renal
# [3] = tested on: A549 NSCLC
# [4] = tested on: ACHN renal
# [5] = tested on: BT-549 breast
# [6] = tested on: CCRF-CEM leukemia
# [7] = tested on: COLO 205 colon
# [8] = tested on: DU-145 prostate
# [9] = tested on: EKVX NSCLC
# [10] = tested on: HCC-2998 colon
# [11] = tested on: HCT-116 colon
# [12] = tested on: HCT-15 colon
# [13] = tested on: HL-60(TB) leukemia
# [14] = tested on: HOP-62 NSCLC
# [15] = tested on: HOP-92 NSCLC
# [16] = tested on: HS 578T breast
# [17] = tested on: HT29 colon
# [18] = tested on: IGROV1 ovarian
# [19] = tested on: K-562 leukemia
# [20] = tested on: KM12 colon
# [21] = tested on: LOX IMVI melanoma
# [22] = tested on: M14 melanoma
# [23] = tested on: MALME-3M melanoma
# [24] = tested on: MCF7 breast
# [25] = tested on: MDA-MB-231 breast
# [26] = tested on: MDA-MB-435
# [27] = tested on: MOLT-4 leukemia
# [28] = tested on: NCI-H226 lung
# [29] = tested on: NCI-H23 lung
# [30] = tested on: NCI-H460 lung
# [31] = tested on: NCI-H522 lung
# [32] = tested on: NCI/ADR-RES ovarian
# [33] = tested on: OVCAR-3 ovarian
# [34] = tested on: OVCAR-4 ovarian
# [35] = tested on: OVCAR-5 ovarian
# [36] = tested on: OVCAR-8 ovarian
# [37] = tested on: PC-3 prostate
# [38] = tested on: RPMI-8226 leukemia
# [39] = tested on: RXF 393 renal
# [40] = tested on: SF-268 CNS
# [41] = tested on: SF-295 CNS
# [42] = tested on: SF-539 CNS
# [43] = tested on: SK-MEL-2 melanoma
# [44] = tested on: SK-MEL-28 melanoma
# [45] = tested on: SK-MEL-5 melanoma
# [46] = tested on: SK-OV-3 ovarian
# [47] = tested on: SN12C renal
# [48] = tested on: SNB-19 CNS
# [49] = tested on: SNB-75 CNS
# [50] = tested on: SR leukemia
# [51] = tested on: SW-620 colon
# [52] = tested on: T-47D breast
# [53] = tested on: U251 CNS
# [54] = tested on: UACC-257 melanoma
# [55] = tested on: UACC-62 melanoma
# [56] = tested on: UO-31 renal
smiles,measurement,setting,value
COc1cc(/C=C/[N+](=O)[O-])cc(OC)c1,GI50,[1],1.74 µM
same,TGI,[1],3.31 µM
same,GI50,[2],2.96 µM
same,TGI,[2],9.12 µM
same,GI50,[3],3.94 µM
same,TGI,[3],16.8 µM
same,GI50,[4],1.76 µM
same,TGI,[4],3.72 µM
same,GI50,[5],1.85 µM
same,TGI,[5],3.65 µM
same,GI50,[6],2.02 µM
same,TGI,[6],6.32 µM
same,GI50,[7],1.79 µM
same,TGI,[7],3.63 µM
same,GI50,[8],1.97 µM
same,TGI,[8],4.03 µM
same,GI50,[9],4.05 µM
same,TGI,[9],27.1 µM
same,GI50,[10],1.98 µM
same,TGI,[10],3.59 µM
same,GI50,[11],1.84 µM
same,TGI,[11],3.64 µM
same,GI50,[12],1.99 µM
same,TGI,[12],6.11 µM
same,GI50,[13],2.22 µM
same,TGI,[13],5.68 µM
same,GI50,[14],2.93 µM
same,TGI,[14],10.4 µM
same,GI50,[15],4.78 µM
same,TGI,[15],20.5 µM
same,GI50,[16],4.11 µM
same,TGI,[16],23.3 µM
same,GI50,[17],3.08 µM
same,TGI,[17],10.4 µM
same,GI50,[18],2.83 µM
same,TGI,[18],8.63 µM
same,GI50,[19],1.75 µM
same,TGI,[19],9.09 µM
same,GI50,[20],3.08 µM
same,TGI,[20],10.5 µM
same,GI50,[21],1.42 µM
same,TGI,[21],2.75 µM
same,GI50,[22],2 µM
same,TGI,[22],4.48 µM
same,GI50,[23],3.29 µM
same,TGI,[23],10.4 µM
same,GI50,[24],1.39 µM
same,TGI,[24],3.61 µM
same,GI50,[25],2.72 µM
same,TGI,[25],8.48 µM
same,GI50,[26],2.99 µM
same,TGI,[26],10.3 µM
same,GI50,[27],2.25 µM
same,TGI,[27],6.33 µM
same,GI50,[28],17.3 µM
same,TGI,[28],46.1 µM
same,GI50,[29],1.85 µM
same,TGI,[29],4.37 µM
same,GI50,[30],3.51 µM
same,TGI,[30],10.5 µM
same,GI50,[31],1.39 µM
same,TGI,[31],3.14 µM
same,GI50,[32],3.02 µM
same,TGI,[32],13.6 µM
same,GI50,[33],1.56 µM
same,TGI,[33],3.07 µM
same,GI50,[34],4.87 µM
same,TGI,[34],17.3 µM
same,GI50,[35],3.66 µM
same,TGI,[35],13.4 µM
same,GI50,[36],3.72 µM
same,TGI,[36],13.9 µM
same,GI50,[37],2.94 µM
same,TGI,[37],8.38 µM
same,GI50,[38],1.85 µM
same,TGI,[38],4.61 µM
same,GI50,[39],1.75 µM
same,TGI,[39],3.27 µM
same,GI50,[40],3.62 µM
same,TGI,[40],14.9 µM
same,GI50,[41],2.54 µM
same,TGI,[41],7.29 µM
same,GI50,[42],2.49 µM
same,TGI,[42],5.56 µM
same,GI50,[43],2.1 µM
same,TGI,[43],4.76 µM
same,GI50,[44],2.75 µM
same,TGI,[44],7.29 µM
same,GI50,[45],1.97 µM
same,TGI,[45],4.03 µM
same,GI50,[46],11.1 µM
same,TGI,[46],23.1 µM
same,GI50,[47],3.38 µM
same,TGI,[47],15.9 µM
same,GI50,[48],8.49 µM
same,TGI,[48],22.1 µM
same,GI50,[49],3.82 µM
same,TGI,[49],16.7 µM
same,GI50,[50],1.14 µM
same,TGI,[50],5.45 µM
same,GI50,[51],1.68 µM
same,TGI,[51],3.65 µM
same,GI50,[52],2.17 µM
same,TGI,[52],7.03 µM
same,GI50,[53],2.22 µM
same,TGI,[53],5.48 µM
same,GI50,[54],2.48 µM
same,TGI,[54],7.57 µM
same,GI50,[55],2.42 µM
same,TGI,[55],7.34 µM
same,GI50,[56],1.78 µM
same,TGI,[56],3.4 µM

# Source: PubChem BioAssay (NCI)
